Results on two molecules are retold here after patent publication US10226466B2, “Methods of treating fibrosis” (Pharmacyclics LLC, priority 2014, dated 2019).

Values joined by “and” are separate entries in the source; they are usually repeats but may differ in a detail not shown here. Equal values may be shown once. “Also recorded” adds a separate entry of the source.

Assay [1] concerns p53^ER/ER;LSLKRas^G12D;pdx1-Cre mice. Kind of assay: Histology, immunohistochemistry and Picrosirius Red collagen staining of pancreata from PDAC model mice treated for 4 weeks. It is filed as in vivo, mouse. To be noted: for Collagen deposition (Picrosirius Red Staining): intraperitoneal daily injection of 10 mg per kg for 4 weeks from 8 weeks of age, compared to vehicle-treated control. The procedure: (§1) For immunohistochemical analyses, tissue samples were fixed overnight in neutral pH-buffered formalin, embedded in paraffin and sectioned (5 μm). Sections were then deparaffinized, rehydrated and microwaved for 1 min in 0.01 M citrate buffer (pH 6.0) for antigen retrieval. Primary antibodies (rat monoclonal anti-CD11b (clone M1/70), eBioscience; rabbit monoclonal anti-Ki67 (clone SP6), Neomarkers) were applied for 2 h in blocking buffer (2.5% BSA, 5% goat serum and 0.3% Triton X-100 in PBS), followed by Vectastain ABC kit and DAB reagents (Vector Laboratories). Images were obtained with an Axiovert S100 TV inverted fluorescence microscope (Zeiss) and Open Lab 3.5.1 software, or with an Axiovert 100 inverted microscope (Zeiss) equipped with a Hamamatsu Orca digital camera. The mast cells were identified using 1% toluidine blue dissolved in ethanol. Picrosirius Red stain kit (Polysciences, Inc.) was used to stain for collagen Types I and III according to manufacturer instructions.
For all experiments, 8 week old male and female p53^ER/ER;LSLKRas^G12D;pdx1-Cre mice of mixed C57BL/6-FVB/N background were randomized into two groups: treated and control. Ibrutinib (0.16 mg/mL with 1% 2-Hydroxypropyl-beta-cyclodextrin (HP-β-CD)) was added to the drinking water of treated animals, and control animals received water containing vehicle only (1% HP-β-CD). Gemcitabine (75 mg/kg) was injected intraperitoneally twice a week for 3 weeks followed by a 1-week rest period. Sodium cromoglycate ([…]) was dissolved in saline solution and injected intraperitoneally, and control mice were treated with vehicle only. Endpoint criteria were defined as 20% body weight loss in addition to general morbidity and lethargy caused by tumor burden. Mice euthanized due to intestinal metaplasia or mucocutaneous papillomas caused by extrapancreatic KRAS^G12D expression were excluded from the survival study.
A p53^ER/ER;LSLKRas^G12D;pdx1-Cre mouse model that harbors a Cre-activated KRasG12D allele inserted into the endogenous KRas locus combined with pancreas-specific PDX-1-driven Cre recombinase activity was used. The disruption of Trp53 signaling in combination with KRas mutation leads to rapid tumorigenesis and histopathological features typical of human pancreatic adenocarcinoma within only 8 weeks. At this stage the animals were treated with ibrutinib, at a dose of 25 mg/Kg/day added to their drinking water, or with vehicle control. The animals were euthanized 4 weeks later and their pancreata harvested for analysis. […] In stained, vehicle-treated mast cells, the cell borders were broken and the content of their granules were released. […] Reasons for this phenomenon can include the fact that several chemokines produced by mast cells, such as IL6, are known to be potent stimulants for monocytic cell migration and macrophage activation, so that inhibiting mast cells could prevent their recruitment.
In order to verify that this effect on fibrosis was specifically due to mast cell interference, two independent control experiments were performed. In the first experiment, sodium cromoglycate (cromolyn), a well-characterized blocker of mast cell degranulation and inflammogen release was used. The p53^ER/ER;LSLKRas^G12D ,pdx1-Cre mice were treated intraperitoneally (i.p.) with a daily injection of 10 mg per kg (bodyweight) of cromolyn, starting at 8 weeks of age. The animals were euthanized 4 weeks later and their pancreata analysed.

The test system is the same in assay [2]. Kind of assay: Flow cytometry of single cell suspensions of PDAC tumors from treated mice. Conditions: ibrutinib 25 mg/Kg/day in drinking water, 4 weeks. It is filed as in vivo, mouse. The method, then:
Following resection, PDAC tumors isolated from PBS-perfused mice were immediately placed in ice-cold PBS, followed by manual mincing using scissors and a 20 min enzymatic digestion with 1.25 mg/mL collagenase type IV (Roche), 0.1% trypsin inhibitor, and 50 U/ml DNase I (Roche) in serum-free Dulbecco's Modified Eagle's Medium (DMEM) (Invitrogen) at 37° C. with continuous stirring. Single cell suspensions were then prepared by passing tissue through 70 μm nylon strainers (BD Biosciences). Cells were incubated for 30 min at 4° C. with rat anti-mouse CD16/CD32 mAb (1:250, clone 2.4G2, BD Bioscience) in PBS, which also contained Live/Dead Aqua stain (1:250, Invitrogen) to differentiate between viable and dead cells. Cells were then incubated for 30 min in PBS containing 1.0% BSA (Sigma) and 2 mM EDTA with 100 μl of fluorophore-conjugated anti-mouse antibodies (dilution; clone): PE-Cy7-CD45 (1:800; 30-F11), PerCp-Cy5.5-CD3e (1:400; 145-2C11), PerCp-Cy5.5-CD19 (1:200; 6D5), PerCp-Cy5.5-CD49b (1:400; DX5), Alexa 700-CD11b (1:400; M1/70), APC780-CD11c (1:200; N418), eFluor450-MHCII (1:800; M5/114.15.2), APC-Ly6C (1:800; HK1.4), PE-Ly6G (1:400; 1A8), and PE-Cy5-F4/80 (1:400; BM8) (eBioscience or Biolegend). Cells were then washed once in PBS containing 1.0% BSA (Sigma) and 2 mM EDTA, followed by fixation with BD Cytofix for 30 min on ice. […]

Assay [3] shares this test system. Kind of assay: Survival study in PDAC model mice (Kaplan-Meier, Log-rank test). Conditions: treatment starting from 8 weeks of age; Log-rank p value=0.015. It is filed as in vivo, mouse.
Experimental: For all experiments, 8 week old male and female p53^ER/ER;LSLKRas^G12D;pdx1-Cre mice of mixed C57BL/6-FVB/N background were randomized into two groups: treated and control. Ibrutinib (0.16 mg/mL with 1% 2-Hydroxypropyl-beta-cyclodextrin (HP-β-CD)) was added to the drinking water of treated animals, and control animals received water containing vehicle only (1% HP-β-CD). Gemcitabine (75 mg/kg) was injected intraperitoneally twice a week for 3 weeks followed by a 1-week rest period. Sodium cromoglycate (10/kg) was dissolved in saline solution and injected intraperitoneally, and control mice were treated with vehicle only. Endpoint criteria were defined as 20% body weight loss in addition to general morbidity and lethargy caused by tumor burden. Mice euthanized due to intestinal metaplasia or mucocutaneous papillomas caused by extrapancreatic KRAS^G12D expression were excluded from the survival study.
Statistical analysis was carried out by two-tailed Mann-Whitney test (for IHC counts), two tailed unpaired t-test (for flow cytometry data) and Log-Rank test (for Kaplan-Meier survival curves). […] Statistical analysis was performed using GraphPad Prism 4.
Two independent survival experiments were undertaken to test the therapeutic impact of ibrutinib alone and to assess ibrutinib in combination with gemcitabine.
For assay [4], the system named is subcutaneous xenografts of a patient derived tumor in NOD/SCID mice. In words: Collagen deposition in subcutaneous xenografts of a patient-derived tumor (PDX) in NOD/SCID mice. It is filed as in vivo, mouse. To be noted: NOD/SCID mice with patient-derived xenograft, ibrutinib-treated vs untreated. The method, then: as §1
NOD/SCID mice were purchased from Charles River Laboratory. The anonymized human sample employed was part of the tissue biological material of the University Hospital Vall d'Hebron. […] Tumor size was evaluated weekly by caliper measurements and tumor volume calculated using the following formula: […]

For another assay, the system named is mast cell. Conditions: mouse model of insulinoma; background statement; cited from earlier work.

On to `O=C(O)c1cc(=O)c2c(OCC(O)COc3cccc4oc(C(=O)O)cc(=O)c34)cccc2o1` [cromolyn, sodium cromoglycate, reference compound], for which the “Collagen deposition (Picrosirius Red Staining)” value in assay [1] is “reduced collagen deposition”; in assay [1] (listed as sodium cromoglicate) it was “recapitulated the antifibrotic effect”.
Turning to `C=CC(=O)N1CCC[C@@H](n2nc(-c3ccc(Oc4ccccc4)cc3)c3c(N)ncnc32)C1` [ibrutinib, (R)-1-(3-(4-amino-3-(4-phenoxyphenyl)-1H-pyrazolo[3,4-d]pyrimidin-1-yl)piperidin-1-yl)prop-2-en-1-one], in assay [2] (FIG. 1C right panel), the “F4/80 positive macrophages (tumor-associated macrophages) by FACS analysis” value is listed as “significant reduction”. For the same molecule, in assay [2] (percent of total cells, FIG. 1C left panel), the “CD11b+ cells by FACS analysis” value is listed as “confirmed by FACS analysis”. The “Survival, monotherapy vs vehicle control” value in assay [3] is “significant survival advantage; also recorded: confers survival advantage”. Further, in assay [4], the “Collagen deposition / tissue fibrosis in tumor stroma (Picrosirius Red Staining)” value is recorded as “reduction in tissue fibrosis; also recorded: reduction of collagen deposition”. Moreover, in assay [1] (ibrutinib 25 mg/Kg/day in drinking water for 4 weeks from 8 weeks of age, IHC, vehicle control 67.8%, p value=0.0016), the “Ki67 positive (proliferating) cells in pancreata / proliferation rate” value is 14.9±7.0% and 14.9%. For the same molecule, the “Mast cell degranulation in tumor stroma (toluidine blue staining)” value in assay [1] (ibrutinib 25 mg/Kg/day in drinking water, 4 weeks) is listed as “efficiently inhibited”. For the same molecule, the “Amount of collagen in tumors (Picrosirius Red Staining)” value in assay [1] (ibrutinib 25 mg/Kg/day in drinking water, 4 weeks, compared to vehicle-treated animals) is reported as “reduced the amount of collagen”. Besides, in assay [1] (ibrutinib 25 mg/Kg/day in drinking water, 4 weeks, compared to vehicle-treated mice), the “CD11b positivity by immunohistochemistry” value is “affected; also recorded: clear reduction of CD11b positivity”. In the assay with mast cell, the “Systemic mast cell blocking” value is recorded as “potent systemic mast cell blocker”.
